# Experimental data from ChEMBL document CHEMBL3392952, “Structure guided lead generation for M. tuberculosis thymidylate kinase (Mtb TMK): discovery of 3-cyanopyridone and 1,6-naphthyridin-2-one as potent inhibitors” (J Med Chem, 2015).
# Calls of active or inactive are those of the source. No cut-off for these calls is given here.
# Tests used:
# Thymidylate kinase = target: T1, Thymidylate kinase (Mycobacterium tuberculosis, UniProt P9WKE1); experiment: Inhibition of Mycobacterium tuberculosis thymidylate kinase activity by pyruvate kinase-lactate dehydrogenase coupled assay
# T1 sequence (P9WKE1 whole entry): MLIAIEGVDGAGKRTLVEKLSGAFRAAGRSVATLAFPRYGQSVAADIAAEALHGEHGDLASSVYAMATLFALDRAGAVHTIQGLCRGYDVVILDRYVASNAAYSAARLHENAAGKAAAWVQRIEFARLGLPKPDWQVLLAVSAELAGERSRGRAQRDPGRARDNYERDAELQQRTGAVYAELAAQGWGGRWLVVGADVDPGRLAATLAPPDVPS
# [1] = system: Mycobacterium tuberculosis; experiment: Antitubercular activity against Mycobacterium tuberculosis assessed as growth inhibition […] by standard microdilution method; type: functional
# [2] = target: T2, Thymidylate kinase (Homo sapiens) (UniProt P23919); experiment: Inhibition of human thymidylate kinase assessed as […] up to 200 uM
# T2 sequence (whole entry): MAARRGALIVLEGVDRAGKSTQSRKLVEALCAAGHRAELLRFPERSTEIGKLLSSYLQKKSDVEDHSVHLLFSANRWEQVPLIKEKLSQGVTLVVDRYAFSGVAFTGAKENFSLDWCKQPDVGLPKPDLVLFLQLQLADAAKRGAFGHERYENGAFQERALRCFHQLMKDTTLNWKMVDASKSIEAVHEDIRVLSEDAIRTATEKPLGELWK
# [3] = Dissociation constant, pKa of the compound; type: physicochemical
# Staphylococcus aureus = experiment: Inhibition of Staphylococcus aureus thymidylate kinase
# Escherichia coli = experiment: Inhibition of Escherichia coli thymidylate kinase
# Haemophilus influenzae = experiment: Inhibition of Haemophilus influenza thymidylate kinase
SMILES,IC50 (Thymidylate kinase),MIC [1],also measured
CSc1cc(-c2ccccn2)[nH]c(=O)c1C#N,18000 nM,–,–
C[S+]([O-])c1cc(-c2cccs2)[nH]c(=O)c1C#N (stereo not given),820 nM,12 µg/mL,–
Cc1nccc2nc(O)c(C#N)cc12,634000 nM,–,–
CS(=O)(=O)c1cc(-c2cccc(OCc3cccc(Cl)c3)c2)[nH]c(=O)c1C#N,22 nM,4 µg/mL,–
CS(=O)(=O)c1cc(-c2cccc(Br)c2)[nH]c(=O)c1C#N,100 nM,8 µg/mL,–
CCNC(=O)Nc1ccc(-c2cc(-c3cccc(OC)c3)[nH]c(=O)c2C#N)cc1,250 nM,–,Activity [2]: inactive
CC(C)c1ccc(COc2cccc(-c3cc([S+](C)[O-])c(C#N)c(=O)[nH]3)c2)cc1 (stereo not given),32 nM,2 µg/mL,–
COc1cccc(-c2cc(-c3cccc(N)c3)c(C#N)c(=O)[nH]2)c1,1200 nM,–,–
CCc1cc2[nH]c(=O)c(C)c(C)c2c(CC)n1,133000 nM,–,–
COc1cccc(-c2cc(-c3cccnc3)c(C#N)c(=O)[nH]2)c1,2630 nM,–,–
CC(C)CCOc1cccc(-c2cc([S+](C)[O-])c(C#N)c(=O)[nH]2)c1 (stereo not given),330 nM,4 µg/mL,–
CCCc1cc2[nH]c(=O)c(C#N)c(-c3ccccc3)c2c(C)n1,1000 nM,> 32 µg/mL,–
COc1ccc(-c2cc(SC)c(C#N)c(=O)[nH]2)cc1,7700 nM,–,–
COc1cccc(-c2cc(-c3cccc(C(=O)O)c3)c(C#N)c(=O)[nH]2)c1,2730 nM,–,–
COc1cccc(-c2cc(-c3ccc(N)cc3)c(C#N)c(=O)[nH]2)c1,1010 nM,–,–
COc1cccc2c1CCc1c-2[nH]c(=O)c(C#N)c1-c1ccc(C(=O)O)cc1,5 nM,> 32 µg/mL,pKa [3]: 4.4
COc1cccc(-c2nc(SC)c(C#N)c(=O)[nH]2)c1,8000 nM,–,–
CSc1cc(-c2cccs2)[nH]c(=O)c1C#N,3600 nM,–,–
N#Cc1c(-c2ccc(C(=O)O)cc2)c2c([nH]c1=O)-c1cccc(-c3cn[nH]c3)c1CC2,2 nM,> 32 µg/mL,pKa [3]: 4.4
CCCc1cc2[nH]c(=O)c(C#N)c(-c3ccc(NS(C)(=O)=O)cc3)c2c(C)n1,2100 nM,> 32 µg/mL,–
COc1cccc(-c2cc(SC)c(C#N)c(=O)[nH]2)c1,1500 nM,–,Activity [2]: inactive
CS(=O)(=O)c1c2c([nH]c(=O)c1C#N)-c1ccccc1OC2,30000 nM,32 µg/mL,–

SMILES,IC50 (Thymidylate kinase),MIC [1],also measured
CCc1cc2[nH]c(=O)c(C#N)c(-c3ccc(NS(C)(=O)=O)cc3)c2c(C)n1,200 nM,> 32 µg/mL,–
COc1cccc(-c2cc(-c3ccc(C(=O)O)cc3)c(C#N)c(=O)[nH]2)c1,420 nM,–,–
COc1ccccc1-c1cc(SC)c(C#N)c(=O)[nH]1,> 50000 nM,–,–
CSc1cc(-c2cccc(Cl)c2)[nH]c(=O)c1C#N,1900 nM,–,–
CSc1cc(-c2cccc(Cl)c2)[nH]c(=O)c1C(N)=O,14300 nM,–,–
COc1cccc(-c2cc(-c3ccc(NC(C)=O)cc3)c(C#N)c(=O)[nH]2)c1,430 nM,–,–
N#Cc1c(-c2ccc(C(=O)O)cc2)c2c([nH]c1=O)-c1ccccc1CC2,6 nM,–,–
CC(C)c1ccc(COc2cccc3c2CCc2c-3[nH]c(=O)c(C#N)c2-c2ccc(C(=O)O)cc2)cc1,1 nM,> 32 µg/mL,pKa [3]: 4.4
CCCc1cc2[nH]c(=O)ccc2c(C)n1,590000 nM,–,–
CSc1cc(-c2cccs2)oc(=O)c1C#N,> 50000 nM,–,–
N#Cc1c(-c2ccc(C(=O)O)cc2)c2c([nH]c1=O)-c1cccc(O)c1CC2,3 nM,> 32 µg/mL,Activity [2]: inactive; pKa [3]: 4.4
CSc1cc(-c2ccccc2)nc(O)c1C#N,1900 nM,–,–
CC(C)c1ccc(COc2cccc(-c3cc(-c4ccc(C(=O)O)cc4)c(C#N)c(=O)[nH]3)c2)cc1,6 nM,–,–
CCNC(=O)Nc1ccc(-c2c3c([nH]c(=O)c2C#N)-c2cccc(OC)c2CC3)cc1,17 nM,> 32 µg/mL,–
C[S+]([O-])c1cc(-c2cccc(Br)c2)[nH]c(=O)c1C#N (stereo not given),140 nM,4 µg/mL,Activity (Staphylococcus aureus): inactive; Activity (Escherichia coli): inactive; Activity (Haemophilus influenzae): inactive
N#Cc1c(-c2ccc(C(=O)NS(=O)(=O)c3ccccc3)cc2)c2c([nH]c1=O)-c1ccccc1OC2,2 nM,> 32 µg/mL,pKa [3]: 5
CS(=O)(=O)NC(=O)c1ccc(-c2c3c([nH]c(=O)c2C#N)-c2ccccc2OC3)cc1,5 nM,> 32 µg/mL,Activity [2]: inactive; pKa [3]: 3.9
C[S+]([O-])c1cc(-c2cccc(OC(F)(F)F)c2)[nH]c(=O)c1C#N (stereo not given),240 nM,8 µg/mL,Activity (Staphylococcus aureus): inactive; Activity (Escherichia coli): inactive; Activity [2]: inactive; Activity (Haemophilus influenzae): inactive
CCc1cc2[nH]c(=O)c(C#N)c(-c3ccccc3)c2c(C)n1,350 nM,> 32 µg/mL,–
CS(=O)(=O)c1cc(-c2cccc(Br)c2)[nH]c(=O)c1,> 25000 nM,> 32 µg/mL,–
COc1cccc(-c2cc(-c3ccc(C(=O)O)cc3)c(C)c(=O)[nH]2)c1,1200 nM,–,–
